The text below walks through data of patent publication US4273866A, “Ligand analog-irreversible enzyme inhibitor conjugates and methods for use” (priority 1979, dated 1981).

Test [1] addresses T1, E. electricus acetylcholinesterase (Electrophorus electricus, UniProt O42275). Nature of the test: Antibody modulation of Compound I inhibitory activity (residual acetylcholinesterase activity). Type of test: biochemical. Conditions: Compound I 4.5 × 10^-7 M. As to the method:
(§1) A stock solution of Compound I (4.6×10^-3 molar in methanol) is diluted 200-fold with pH 7.0, 0.1 molar phosphate buffer containing 0.1% gelatin. Digoxin antibody is diluted in phosphate-gelatin buffers as indicated in Table I. Fifty microliters of phosphate-gelatin buffer, pH 7.0, containing the indicated concentration of antibody is placed in sample cups of a bichromatic spectrophotometer (model ABA-100® sold by Abbott Laboratories). To each of these 50 μl is added 1 μl of Compound I working solution making the final concentration 4.5×10^-7 molar. The antibody and Compound I (inhibitor) are allowed to incubate for 10-15 minutes at room temperature. Each sample receives 1 .parallel.l of working enzyme solution (9.5×10^-9 molar of E. electricus acetylcholinesterase in pH 7.0 phosphate-gelatin buffer). The final enzyme concentration is 1.9×10^-10 molar. The sample is diluted 1/26 with assay buffer containing acetylthiocholine, as substrate, 5×10^-4 molar and 5,5'-dithiobis-(2 -nitrobenzoic acid) (DTNB), 1.6×10^-4 molar in pH 7.0 phosphate-gelatin buffer. The change in absorbance with time is measured after 5 minutes in the bichromatic analyzer equipped with a 415/550 nm filter at 30° C.

In test [2] the target is T1, E. electricus acetylcholinesterase. Nature of the test: Specific modulation of Compound I inhibition by digoxin antibody and digoxin. Type of test: biochemical. Here is the method: as §1, with “C. The results are as follows:” for “C.”
The above experiment is repeated except digoxin at a concentration of 2.5×10^-5 molar is added to the sample cups. […] Fifty microliters of phosphate-gelatin buffer is added to a sample cup. The buffer solution either contains 2.5×10^-5 molar digoxin or is a control. To the sample cup is added a final concentration of 9×10^-7 molar digoxin antibody and 4.5×10^-7 molar Compound I. These solutions are allowed to incubate for 15 minutes and then enzyme is added and assayed according to the previous procedure.

Test [3] shares this target. Briefly: Residual enzyme activity with Compound I, antibody and digoxin in buffer. Type of test: biochemical. Conditions: antibody 4.5×10^-7 molar, after 21 minutes. Here is the method: as §1, with “C. The results are as follows:” for “C.”
The above experiment is repeated except digoxin at a concentration of 2.5×10^-5 molar is added to the sample cups. […] Fifty microliters of phosphate-gelatin buffer is added to a sample cup. The buffer solution either contains 2.5×10^-5 molar digoxin or is a control. To the sample cup is added a final concentration of 9×10^-7 molar digoxin antibody and 4.5×10^-7 molar Compound I. These solutions are allowed to incubate for 15 minutes and then enzyme is added and assayed according to the previous procedure. The results are as follows:
Using the above procedures with the exception that the antibody final concentration in the sample is 4.5×10^-7 molar, various phosphate-gelatin buffer solutions are prepared with the indicated digoxin concentration. Each of these solutions are analyzed by adding antibody and Compound I to the solution as in the previous procedure, allowing a 2.5 minute incubation period to elapse and assaying for the residual enzyme activity after 21 minutes.

For test [4], the system named is acetylcholinesterase. Nature of the test: Digoxin in serum assay with Compound I. Type of test: biochemical, E. electricus. Here is the method: as §1, with “C. The results are as follows:” for “C.”
Normal human serum containing digoxin concentrations listed in the table below are assayed by the procedure set out above.
N-Ethylmaleimide is used to block background sulfhydryl groups in human serum.
Thus, 1 μl of concentrated digoxin antibody in pH 7.0 phosphate-gelatin buffer containing 50 mM of N-methylorphenadrine is added to 50 μl of each serum standard then N-ethylmaleimide is added with mixing to each serum standard to make a working concentration of 1.6 mM. To the serum is also added 1 μl of a solution containing Compound I in pH 7.0, 0.1 molar phosphate-gelatin buffer. The final antibody concentration is 8.0×10^-7 molar and the final concentration of Compound I is 4.5×10^-7. These solutions are allowed to incubate for 12 minutes at which time acetylcholinesterase is added as before. After 26 minutes, the bichromatic spectrophotometer is started and a sample from each cup is diluted 26-fold with assay buffer containing 1.6×10^-5 molar DTNB, 5×10^-4 molar acetyl-β-methylthiocholine iodide, and 1 mM N-methyl-orphenadrine in pH 7.0, 0.1 molar phosphate-gelatin buffer. The final enzyme concentration is about 2×10^-11 molar and the cuvette temperature is 30° C. The change in absorbance after 5 minutes is as follows: […]

Test [5] has as its system human serum cholinesterase. Nature of the test: Inhibition of human serum cholinesterase. Type of test: biochemical. Conditions: 1 mM. An excerpt:
(§2) N,N,N-Trimethyl-2-(o-methyl-α-phenylbenzyloxy) ethylammonium methylsulfate(N-methylorphenadrine) prepared by reacting N,N-dimethyl-2-(o-methyl-α-phenylbenzyloxy) ethylamine(orphenadrine)with dimethylsulfate.

Test [6] addresses cholinesterase from E.electricus (Electrophorus electricus, UniProt O42275). Nature of the test: Inhibition of cholinesterase from E.electricus. Conditions: 1 mM. Type of test: biochemical.
Text: as §2

T1 sequence (O42275 24-633): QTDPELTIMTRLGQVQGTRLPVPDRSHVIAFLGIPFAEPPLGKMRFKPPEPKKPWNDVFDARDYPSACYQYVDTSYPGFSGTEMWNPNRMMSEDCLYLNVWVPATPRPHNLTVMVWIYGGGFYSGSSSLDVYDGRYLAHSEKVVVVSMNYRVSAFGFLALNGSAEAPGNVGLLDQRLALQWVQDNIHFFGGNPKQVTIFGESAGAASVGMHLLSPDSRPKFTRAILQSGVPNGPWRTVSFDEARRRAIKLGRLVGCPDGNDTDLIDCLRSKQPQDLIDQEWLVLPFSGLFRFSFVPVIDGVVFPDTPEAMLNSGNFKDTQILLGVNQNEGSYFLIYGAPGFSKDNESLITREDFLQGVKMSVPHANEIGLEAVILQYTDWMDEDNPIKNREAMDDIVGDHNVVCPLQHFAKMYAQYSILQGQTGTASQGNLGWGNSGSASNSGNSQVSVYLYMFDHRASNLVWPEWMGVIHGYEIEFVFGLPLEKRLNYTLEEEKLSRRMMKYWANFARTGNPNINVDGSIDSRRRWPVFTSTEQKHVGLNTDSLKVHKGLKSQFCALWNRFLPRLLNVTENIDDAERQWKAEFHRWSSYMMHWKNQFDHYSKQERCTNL
cholinesterase from E.electricus, sequence (O42275 24-633): as above

For `CCOP(=O)(OCCCCCNC(=O)CCCCCNC(=O)OC1CCC2(C)C(CCC3C2CC(O)C2(C)C(C4=CC(=O)OC4)CCC32O)C1)Oc1ccc2ccc[n+](C)c2c1` (stereo not shown) [Compound I], the “change in absorbance with time” value in test [1] (antibody 9 × 10^-7 M, enzyme 1.9 × 10^-10 M, 10' incubation) amounted to 0.161 Ad/5 min; in test [1] (antibody 9 × 10^-7 M, enzyme 1.9 × 10^-10 M, 21' incubation), 0.137 Ad/5 min; in test [1] (antibody 9 × 10^-7 M, enzyme 1.9 × 10^-10 M, 43' incubation), 0.107 Ad/5 min; in test [1] (antibody 9 × 10^-8 M, enzyme 1.9 × 10^-10 M, 10' incubation), 0.089 Ad/5 min; in test [1] (antibody 9 × 10^-8 M, enzyme 1.9 × 10^-10 M, 21' incubation), 0.027 Ad/5 min; in test [1] (antibody 9 × 10^-8 M, enzyme 1.9 × 10^-10 M, 43' incubation), 0.005 Ad/5 min. The “change in absorbance with time” value in test [1] (no antibody, enzyme 1.9 × 10^-10 M (enzyme alone 0.220), 10' incubation) came to 0.045 Ad/5 min; in test [1] (no antibody, enzyme 1.9 × 10^-10 M (enzyme alone 0.221), 21' incubation) it was 0.015 Ad/5 min; in test [1] (no antibody, enzyme 1.9 × 10^-10 M (enzyme alone 0.222), 43' incubation) it was 0.003 Ad/5 min. Besides, the “Ad/5 min. after enzyme-inhibitor incubation time” value in test [2] (Enzyme + Compound I + Antibody (9×10^-7 molar), 0.3') worked out at 0.160 Ad/5 min; in test [2] (Enzyme + Compound I + Antibody (9×10^-7 molar), 11'), 0.129 Ad/5 min; in test [2] (Enzyme + Compound I + Antibody (9×10^-7 molar), 19') it was 0.115 Ad/5 min; in test [2] (Enzyme + Compound I + Antibody + Digoxin (2.5×10^-5 molar), 0.3') it was 0.160 Ad/5 min; in test [2] (Enzyme + Compound I + Antibody + Digoxin (2.5×10^-5 molar), 11') it was 0.068 Ad/5 min; in test [2] (Enzyme + Compound I + Antibody + Digoxin (2.5×10^-5 molar), 19'), 0.038 Ad/5 min. For the same compound, the “Ad/5 min. after enzyme-inhibitor incubation time” value in test [2] (Enzyme + Compound I, 0.3' (enzyme only 0.174)) is 0.162 Ad/5 min; in test [2] (Enzyme + Compound I, 11' (enzyme only 0.169)), 0.037 Ad/5 min; in test [2] (Enzyme + Compound I, 19' (enzyme only 0.167)), 0.013 Ad/5 min. Besides, the “% Activity of Enzyme” value is 65% in test [3] (digoxin 0.062 μM); 65% in test [3] (digoxin 0.125 μM); 62% in test [3] (digoxin 0.25 μM); 57% in test [3] (digoxin 0.5 μM); 36% in test [3] (digoxin 1.0 μM). The “change in absorbance after 5 minutes” value in test [4] (digoxin in serum 0.1 μM, antibody 8.0×10^-7 molar, Compound I 4.5×10^-7) was 0.096 Ad/5 Min; in test [4] (digoxin in serum 0.13 μM), 0.089 Ad/5 Min; in test [4] (digoxin in serum 0.17 μM) it was 0.083 Ad/5 Min; in test [4] (digoxin in serum 0.26 μM) it was 0.077 Ad/5 Min; in test [4] (digoxin in serum 0.34 μM), 0.073 Ad/5 Min; in test [4] (digoxin in serum 0.51 μM), 0.063 Ad/5 Min. For the same compound, the “change in absorbance after 5 minutes” value in test [4] (digoxin in serum 0.64 μM) worked out at 0.060 Ad/5 Min; in test [4] (digoxin in serum 0.85 μM), 0.047 Ad/5 Min; in test [4] (digoxin in serum 1.30 μM), 0.035 Ad/5 Min.

Turning to `Cc1ccccc1C(OCC[N+](C)(C)C)c1ccccc1` (stereo not drawn) [N-methylorphenadrine, N,N,N-Trimethyl-2-(o-methyl-α-phenylbenzyloxy) ethylammonium methylsulfate], the “inhibition of human serum cholinesterase” value in test [5] is “greater than 99%”. For the same compound, the inhibition at 1000 µM in test [6] turned out to be 25%.
